{"source": "patent US20110237538A1", "about": "“TREATMENT OF LYSOSOMAL STORAGE DISORDERS AND OTHER PROTEOSTATIC DISEASES” (SUMMIT CORPORATION PLC, priority 2008, published 2011)", "key": {"[1]": {"target": "T1, wild type (wt) beta-glucocerebrosidase (Homo sapiens, UniProt P04062)", "T1 construct": "The lysates were used as a source for wild type (wt) beta-glucocerebrosidase; endogenous in cells; host or cells: HL60 (ECACC No. 98070106) lysate", "T1 sequence (P04062 40-536)": "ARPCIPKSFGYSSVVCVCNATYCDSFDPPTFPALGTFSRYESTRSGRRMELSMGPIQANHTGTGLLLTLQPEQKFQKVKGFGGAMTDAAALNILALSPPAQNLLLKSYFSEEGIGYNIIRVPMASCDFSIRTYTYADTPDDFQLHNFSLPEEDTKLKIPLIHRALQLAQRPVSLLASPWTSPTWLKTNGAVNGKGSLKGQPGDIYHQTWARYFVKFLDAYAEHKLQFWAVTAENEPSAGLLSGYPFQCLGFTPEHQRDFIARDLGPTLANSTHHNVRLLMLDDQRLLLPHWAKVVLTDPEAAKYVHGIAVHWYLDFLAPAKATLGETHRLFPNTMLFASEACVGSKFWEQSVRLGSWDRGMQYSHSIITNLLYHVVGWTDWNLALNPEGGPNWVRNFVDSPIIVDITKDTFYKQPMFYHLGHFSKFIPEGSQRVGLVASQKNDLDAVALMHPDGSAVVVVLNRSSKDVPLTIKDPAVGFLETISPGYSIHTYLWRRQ", "experiment": "beta-glucocerebrosidase activity assay in HL60 lysate (4MU-β-D-glc);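 further: fluorometric read-out of 4MU liberated from the substrate (ex 360 nm, em 450 nm) after 37 °C incubation, reaction stopped with sodium carbonate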", "assay_type": "biochemical", "details": "at a concentration of 100 μM, 0.5 mM 4MU-β-D-glc"}, "[2]": {"test_system": "beta-glucocerebrosidase (N370S GM01873, L444P GM08752)", "experiment": "enzyme enhancement assay, cell based screening for chaperones (Gaucher lymphoblasts)", "design": "species or system human", "details": "Gaucher patient lymphoblasts, dosed 0.3-100 μM, 72 hr; relative to vehicle, normalised against total protein"}, "[3]": {"test_system": "alpha-galactosidase", "experiment": "enzyme enhancement assay, cell based screening for chaperones (Fabry lymphoblasts GM04391)", "design": "species or system human", "details": "Fabry patient lymphoblasts (GM04391), dosed 0.3-100 μM, 72 hr; relative to vehicle"}, "[4]": {"target": "T2, beta-glucuronidase (Homo sapiens, UniProt P08236)", "T2 sequence (P08236 23-651)": "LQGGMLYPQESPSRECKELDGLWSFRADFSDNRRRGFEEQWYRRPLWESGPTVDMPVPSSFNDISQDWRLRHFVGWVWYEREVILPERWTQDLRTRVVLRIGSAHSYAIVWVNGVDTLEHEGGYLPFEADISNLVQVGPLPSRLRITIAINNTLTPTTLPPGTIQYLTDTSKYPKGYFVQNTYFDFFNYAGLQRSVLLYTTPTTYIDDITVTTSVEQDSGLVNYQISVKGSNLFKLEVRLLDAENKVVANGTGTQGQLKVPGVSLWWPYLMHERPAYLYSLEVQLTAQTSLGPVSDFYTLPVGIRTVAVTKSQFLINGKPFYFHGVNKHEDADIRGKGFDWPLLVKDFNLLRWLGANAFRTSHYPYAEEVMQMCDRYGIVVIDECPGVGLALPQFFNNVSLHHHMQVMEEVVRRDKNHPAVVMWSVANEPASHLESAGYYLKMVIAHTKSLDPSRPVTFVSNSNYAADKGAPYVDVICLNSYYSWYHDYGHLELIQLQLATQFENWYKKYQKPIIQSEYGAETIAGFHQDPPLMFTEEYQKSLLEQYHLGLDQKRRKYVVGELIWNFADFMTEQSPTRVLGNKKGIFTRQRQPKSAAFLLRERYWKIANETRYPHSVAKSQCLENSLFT", "experiment": "inhibition of beta-glucuronidase (Example 3)", "assay_type": "biochemical", "source_text": "(§1) This compound, for example, might therefore show therapeutic activity for mucopolysaccharidosis type 1."}, "[5]": {"target": "T3, Jack bean α-D-mannosidase (Canavalia ensiformis, UniProt C0HJB3)", "T3 construct": "purchased Sigma M7257", "T3 sequence (C0HJB3 1-981)": "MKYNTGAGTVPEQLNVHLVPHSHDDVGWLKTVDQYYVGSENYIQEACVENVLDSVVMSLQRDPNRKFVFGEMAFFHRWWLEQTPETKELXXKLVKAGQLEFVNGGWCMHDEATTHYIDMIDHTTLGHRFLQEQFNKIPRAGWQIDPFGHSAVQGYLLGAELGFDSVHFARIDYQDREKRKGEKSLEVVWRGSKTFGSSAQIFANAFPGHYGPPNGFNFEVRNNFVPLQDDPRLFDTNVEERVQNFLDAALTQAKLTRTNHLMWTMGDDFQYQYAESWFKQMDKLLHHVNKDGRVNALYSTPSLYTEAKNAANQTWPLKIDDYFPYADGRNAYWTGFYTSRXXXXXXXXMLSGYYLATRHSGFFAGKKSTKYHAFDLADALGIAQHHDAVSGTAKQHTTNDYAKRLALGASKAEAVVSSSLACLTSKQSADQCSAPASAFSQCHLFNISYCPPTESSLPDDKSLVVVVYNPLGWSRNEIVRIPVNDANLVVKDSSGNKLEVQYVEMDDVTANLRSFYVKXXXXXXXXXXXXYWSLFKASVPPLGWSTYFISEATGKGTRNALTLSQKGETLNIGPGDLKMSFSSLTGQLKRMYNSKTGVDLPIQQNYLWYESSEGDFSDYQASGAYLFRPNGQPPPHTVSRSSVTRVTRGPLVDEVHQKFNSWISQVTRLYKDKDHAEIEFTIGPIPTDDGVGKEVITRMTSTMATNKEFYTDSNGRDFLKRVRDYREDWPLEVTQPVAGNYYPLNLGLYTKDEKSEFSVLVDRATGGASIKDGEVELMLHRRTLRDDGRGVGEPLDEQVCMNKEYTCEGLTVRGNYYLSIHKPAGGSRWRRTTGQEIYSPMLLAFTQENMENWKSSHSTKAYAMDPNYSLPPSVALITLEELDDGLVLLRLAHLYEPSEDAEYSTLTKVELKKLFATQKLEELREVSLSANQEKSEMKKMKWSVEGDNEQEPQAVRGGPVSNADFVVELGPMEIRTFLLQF", "experiment": "α-mannosidase activity assay with p-nitrophenyl-α-D-mannopyranoside (Example 1)", "assay_type": "biochemical", "details": "Jack Bean α-mannosidase, p-nitrophenyl-α-D-mannopyranoside as the substrate", "protocol": "Solutions of 0.2M Mcllvane buffer at pH 4.5 and 5 mM p-nitrophenyl-α-D-mannopyranoside (Sigma, N2127), dissolved in the buffer, were prepared. A solution of Jack bean α-D-mannosidase enzyme (Sigma, M7257, 22 Units/mg, 6.2 mg/ml.) was also prepared at 0.6 Units/ml in the buffer.\nThe incubation mixture consisted of 10 μl enzyme solution, 10 μl of 1 mg/ml aqueous iminosugar solution and 50 μl of 5 mM substrate made up in buffer at the optimum pH for the enzyme. The reactions were stopped by addition of 70 μl 0.4M glycine (pH 10.4) during the exponential phase of the reaction, which had been determined at the beginning using uninhibited assays in which water replaced inhibitor. Final absorbances were read at 405 nm using a Versamax microplate reader (Molecular Devices). Assays were carried out in triplicate, and the values given are means of the three replicates. Results were expressed as a percentage of uninhibited assays in which water replaced inhibitor."}, "[6]": {"target": "T4, α-D-galactosidase (green coffee beans) (Coffea arabica, UniProt Q42656)", "T4 construct": "purchased Sigma Aldrich Chemicals Limited", "T4 sequence (Q42656 16-378)": "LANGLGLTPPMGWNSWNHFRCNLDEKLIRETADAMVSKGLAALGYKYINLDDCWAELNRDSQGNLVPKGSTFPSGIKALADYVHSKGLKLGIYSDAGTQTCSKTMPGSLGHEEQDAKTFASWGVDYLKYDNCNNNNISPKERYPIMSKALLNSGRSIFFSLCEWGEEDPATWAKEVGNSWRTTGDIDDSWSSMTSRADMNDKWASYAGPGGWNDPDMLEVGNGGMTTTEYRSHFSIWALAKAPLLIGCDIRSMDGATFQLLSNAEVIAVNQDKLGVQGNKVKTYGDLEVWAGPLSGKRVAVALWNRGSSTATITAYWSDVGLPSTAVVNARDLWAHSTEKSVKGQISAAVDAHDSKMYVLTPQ", "experiment": "glycosidase assay with p-nitrophenyl substrates (Example 2)", "assay_type": "biochemical", "details": "10 μl of 5 mM iminosugar solution in 70 μl incubation mixture; 20° C.; read-out: Promotion of glycosidase activity: α-D-galactosidase (Green coffee bean)", "protocol": "(§2) The assays were conducted as described by Watson et al. 1997, Phytochemistry 46: 255-259 using p-nitrophenyl-substrates. Assays were carried out in microtitre plates. Enzymes were assayed in 0.1M citric acid/0.2M di-sodium hydrogen phosphate (Mcllvaine) buffers at the optimum pH for the enzyme. All assays were carried out at 20° C. All enzymes and substrates were purchased from Sigma Aldrich Chemicals Limited. The incubation mixture consisted of 10 μl of enzyme solution, 10 μl of the iminosugars solution (made up in deionised water at 5 mM) and 50 μl of the appropriate 5 mM p-nitrophenyl substrate made up in McIlvaine buffer at the optimum pH for the enzyme. The reactions were stopped with 0.4M glycine (pH 10.4) during the exponential phase of the reaction, which was determined at the beginning of the assay using blanks with water, which were incubated for a range of time periods to measure the reaction rate using 5 mM substrate solution. Absorbances were read at 405 nm. Water was substituted for the inhibitors in the blanks.\n(§3) The glycosidases used were α-D-glucosidase (yeast), α-D-glucosidase (Bacillus sterothermophilus), α-D-glucosidase (rice), amyloglucosidase (Aspergillus niger), β-D-glucosidase (almond), α-D-galactosidase (green coffee beans), β-D-galactosidase (bovine liver), α-L-fucosidase (bovine kidney), α-D-mannosidase (Jack bean), β-D-mannosidase (Cellullomonas fimi), Naringinase (Penicillium decumbens), N-acetyl-β-D-glucosaminidase (Bovine kidney), N-acetyl-β-D-glucosaminidase (Aspergillus oryzae) and N-acetyl-β-D-glucosaminidase (Jack bean)"}, "[7]": {"test_system": "α-D-glucosidase (Bacillus sterothermophilus)", "experiment": "glycosidase assay with p-nitrophenyl substrates (Example 2)", "assay_type": "biochemical", "details": "10 μl of 5 mM iminosugar solution in 70 μl incubation mixture; 20° C.", "protocol": "as §2, §3"}, "[8]": {"target": "T5, α-L-fucosidase (bovine kidney) (Bos taurus, UniProt Q2KIM0)", "T5 construct": "purchased Sigma Aldrich Chemicals Limited; host or cells: bovine kidney", "T5 sequence (Q2KIM0 23-468)": "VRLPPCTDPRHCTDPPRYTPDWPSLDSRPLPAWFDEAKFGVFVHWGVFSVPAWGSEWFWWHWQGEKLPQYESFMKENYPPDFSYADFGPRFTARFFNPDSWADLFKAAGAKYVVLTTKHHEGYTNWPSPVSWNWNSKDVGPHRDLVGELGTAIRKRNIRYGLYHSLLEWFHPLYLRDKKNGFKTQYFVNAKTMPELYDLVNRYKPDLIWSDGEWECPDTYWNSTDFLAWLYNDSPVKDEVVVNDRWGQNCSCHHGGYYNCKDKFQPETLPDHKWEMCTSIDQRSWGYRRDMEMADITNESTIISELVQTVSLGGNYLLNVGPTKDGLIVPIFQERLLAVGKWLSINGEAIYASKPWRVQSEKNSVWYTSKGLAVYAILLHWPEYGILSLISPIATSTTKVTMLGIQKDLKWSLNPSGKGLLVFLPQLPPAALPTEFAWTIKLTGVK", "experiment": "glycosidase assay with p-nitrophenyl substrates (Example 2)", "assay_type": "biochemical", "details": "10 μl of 5 mM iminosugar solution in 70 μl incubation mixture; 20° C.", "protocol": "as §2, §3"}, "[9]": {"target": "T6, alpha-L-iduronidase (Homo sapiens, UniProt P35475)", "T6 sequence (P35475 28-653)": "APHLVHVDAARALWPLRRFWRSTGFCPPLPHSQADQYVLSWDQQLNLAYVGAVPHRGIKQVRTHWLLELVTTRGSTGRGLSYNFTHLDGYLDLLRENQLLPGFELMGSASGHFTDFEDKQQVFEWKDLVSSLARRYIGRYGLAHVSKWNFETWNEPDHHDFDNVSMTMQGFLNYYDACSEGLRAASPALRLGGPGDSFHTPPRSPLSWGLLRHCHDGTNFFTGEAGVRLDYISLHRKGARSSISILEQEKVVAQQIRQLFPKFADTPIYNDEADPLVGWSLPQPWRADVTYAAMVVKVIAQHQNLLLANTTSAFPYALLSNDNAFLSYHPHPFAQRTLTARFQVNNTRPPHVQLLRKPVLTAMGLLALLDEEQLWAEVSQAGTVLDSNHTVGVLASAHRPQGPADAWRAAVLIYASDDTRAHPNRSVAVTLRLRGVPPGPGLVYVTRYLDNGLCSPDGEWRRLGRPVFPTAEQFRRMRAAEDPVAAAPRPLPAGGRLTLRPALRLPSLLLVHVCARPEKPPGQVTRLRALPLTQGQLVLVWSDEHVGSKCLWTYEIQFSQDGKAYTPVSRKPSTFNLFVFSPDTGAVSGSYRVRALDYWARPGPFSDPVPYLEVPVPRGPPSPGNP", "experiment": "inhibition of alpha-L-iduronidase (Example 3)", "assay_type": "biochemical", "source_text": "as §1"}, "[10]": {"test_system": "the other 14 glycosidases described in Example 2", "experiment": "glycosidase panel of Example 2 (selectivity)", "assay_type": "biochemical", "protocol": "as §2, with “blanks. […]” for “blanks.”"}}, "data": [{"smiles": "O[C@@H]1C[C@H]2CC[C@](O)(N2)[C@H]1O", "note": "[Compound 20, (1R,2S,3R,5R)-8-azabicyclo[3.2.1]octane-1,2,3-triol]", "values": [{"measurement": "inhibition at 100 µM", "setting": "[1]", "result": "> 50", "unit": "%"}, {"measurement": "increased enzyme activity (beta-glucocerebrosidase)", "setting": "[2]", "result": "> 20", "unit": "%"}, {"measurement": "increased enzyme activity (alpha-galactosidase)", "setting": "[3]", "result": "> 20", "unit": "%"}]}, {"smiles": "O=C(O)[C@H]1NC[C@H](O)[C@@H](O)[C@@H]1O", "note": "[Compound 7, (2S,3R,4R,5S)-3,4,5-trihydroxypiperidine-2-carboxylic acid]", "values": [{"measurement": "inhibition of beta-glucuronidase (in words)", "setting": "[4]", "result": "specific inhibitor"}]}, {"smiles": "C[C@@]1(O)CN[C@H](CO)[C@@H](O)[C@@H]1O", "note": "[Compound 201, (2R,3R,4S,5R)-2-(hydroxymethyl)-5-methylpiperidine-3,4,5-triol]", "values": [{"measurement": "promotion of the mannosidase activity (in words)", "setting": "[5]", "result": "promotion of the mannosidase activity"}, {"measurement": "increased enzyme activity (beta-glucocerebrosidase)", "setting": "[2]", "result": "> 201", "unit": "%"}, {"measurement": "increased enzyme activity (alpha-galactosidase)", "setting": "[3]", "result": "> 201", "unit": "%"}]}, {"smiles": "CCCCCCCCCN1C[C@H](O)[C@H](O)[C@@H]1[C@H](O)[C@H](O)CO", "note": "[Compound 324, (1S,2R)-1-((2R,3R,4S)-3,4-dihydroxy-1-nonylpyrrolidin-2-yl)propane-1,2,3-triol]", "values": [{"measurement": "activation at 714 µM", "setting": "[6]", "result": 42, "unit": "%"}, {"measurement": "Promotion of glycosidase activity: α-D-glucosidase (Bacillus sterothermophilus)", "setting": "[7]", "result": "150 % increase in absorbance compared to the water controls"}, {"measurement": "Promotion of glycosidase activity: α-L-fucosidase (Bovine kidney)", "setting": "[8]", "result": "42 % increase in absorbance compared to the water controls"}]}, {"smiles": "O=C(O)[C@@H]1[C@@H](O)[C@H](O)[C@H]2[C@@H](O)CCN21", "note": "[Compound 56, (1R,2R,3S,7S,7aR)-1,2,7-trihydroxyhexahydro-1H-pyrrolizine-3-carboxylic acid]", "values": [{"measurement": "inhibition of alpha-L-iduronidase (in words)", "setting": "[9]", "result": "potently inhibited"}, {"measurement": "inhibition of the other 14 glycosidases described in Example 2 (in words)", "setting": "[10]", "result": "none"}]}]}
